Laboratory results taken from US4971992A, “Carbonate derivatives of eseroline” (priority 1989, dated 1990).
Read-outs that look alike come from different tables or passages of the source.

System: 2-phenyl-1,4-benzoquinone-induced writhing
Test: 2-phenyl-1,4-benzoquinone-induced writhing test in mice (analgesia)
Format: in vivo
Conditions: Mus musculus, read-out: Inhibition of Writhing ED50
From the text: Compounds of the present invention are useful as analgesic agents due to their ability to alleviate pain in mammals. […] Exptl. Biol. Med. 95, 729 (1957)]. The analgesic activity of some of the compounds expressed in terms of the ED50 values for inhibition of writhing are given in TABLE I.

How did the ED50 (sc, subcutaneous) turn out when `CN1CC[C@@]2(C)c3cc(OC(=O)Oc4ccc(Cl)cc4)ccc3N(C)[C@@H]12.O=C(O)/C=C/C(=O)O` (relative stereo) [4-Chlorophenyl (3aS-cis)-1,2,3,3a,8,8a-hexahydro-1,3a,8-trimethylpyrrolo [2,3-b]indol-5-yl carbonate fumarate] was run?
Its ED50 is 0.74 mg/kg.

For `CN1CC[C@@]2(C)c3cc(OC(=O)OC(C)(C)C)cc(Br)c3N(C)[C@@H]12` [(3aS-cis)-7-Bromo-1,2,3,3a,8,8a-hexahydro-1,3a,8-trimethylpyrrolo[2,3-b]indol-5-yl t-butyl carbonate sesquifumarate], which ED50 (oral) is on record?
The ED50 was 0.4 mg/kg.

And the ED50 (sc, subcutaneous)?
The ED50 was 0.16 mg/kg.

For `CN1CC[C@@]2(C)c3cc(O)ccc3N(C)[C@@H]12` [eseroline salicylate, reference compound], which ED50 (sc, subcutaneous) is on record?
Its ED50 is 0.52 mg/kg.
